Test results published in the NIST ThermoML archive (doi:10.1016/j.fluid.2010.01.027).

Details: for mass density: Vibrating tube method

FC(F)(F)C(F)(F)C(F)(F)F [octafluoropropane]
speed of sound [m/s], Gas, sonar gas analyzer
Details	248.2 K	259.8 K	270.2 K	272.6 K	283.2 K	296.1 K	303.9 K
10 kPa	107.9	–	112.31	–	–	–	119.13
20 kPa	107.6	110	111.99	–	114.63	–	118.98
30 kPa	107.25	109.59	111.77	–	114.12	–	118.79
50 kPa	106.56	108.88	111.27	–	113.84	116.81	118.42
70 kPa	105.77	108.23	110.9	–	113.1	116.31	118.04
100 kPa	104.62	107.27	–	110.29	112.46	115.55	117.43
150 kPa	102.76	105.51	–	108.59	111.28	114.42	116.26
200 kPa	–	103.72	–	106.9	109.88	113.23	115.36
250 kPa	–	101.83	–	105.22	108.56	111.94	114.31
300 kPa	–	–	–	103.59	107.1	110.7	113.14
350 kPa	–	–	–	101.9	105.61	109.43	112
400 kPa	–	–	–	100.27	103.99	108.12	110.63

FC(F)(F)C(F)(F)C(F)(F)C(F)(F)C(F)(F)C(F)(F)F [perfluorohexane]
101.33 kPa, Liquid
Details	mass density [kg/m3]
278.15 K	1739.8
288.15 K	1712.7
298.15 K	1682.8
308.15 K	1651.9

101.33 kPa, Liquid, sound analyzer
Details	speed of sound [m/s]
278.15 K	571.89
288.15 K	540.31
298.15 K	510.7
